# Data published in patent publication US9302999B2, “Substituted triazoles as herbicides” (E. I. DU PONT DE NEMOURS AND COMPANY, priority 2012, dated 2016).
# Experiments:
# Type in all cases: in vivo
# [1] = test system: pigweed, palmer (palmer pigweed, Amaranthus palmeri); test: Test F pre-/postemergence: pigweed, palmer
# From the text: (§1) Seeds of plant species selected from corn (Zea mays), soybean (Glycine max), velvetleaf (Abutilon theophrasti), lambsquarters (Chenopodium album), poinsettia, wild (wild poinsettia, Euphorbia heterophylla), pigweed, palmer (palmer pigweed, Amaranthus palmeri), waterhemp (common waterhemp, Amaranthus rudis), surinam grass (Brachiaria decumbens), crabgrass, Brazil (Brazilian crabgrass, Digitaria horizontalis), panicum, fall (fall panicum Panicum dichotomiflorum), crabgrass, large (large crabgrass, Digitaria sanguinalis), foxtail, giant (giant foxtail, Setaria faberii), foxtail, green (green foxtail Setaria viridis), goosegrass (Eleusine indica), ragweed (common ragweed, Ambrosia elatior), barnyardgrass (Echinochloa crus-galli), sandbur (southern sandbur, Cenchrus echinatus), arrowleaf sida (Sida rhombifolia), ryegrass, Italian (Italian ryegrass, Lolium multiflorum), dayflower, VA (Virginia (VA) dayflower, Commelina virginica), field bindweed (Convolvulus arvensis), cocklebur (common cocklebur, Xanthium strumarium), morningglory (Ipomoea coccinea), nightshade (eastern black nightshade, Solanum ptycanthum), kochia (Kochia scoparia), nutsedge, yellow (yellow nutsedge, Cyperus esculentus), johnsongrass (Sorghum halepense), smartweed (ladysthumb smartweed, Polygonum persicaria), and beggarticks (hairy beggarticks, Bidens pilosa), were planted into a silt loam soil and treated preemergence with test chemicals formulated in a non-phytotoxic solvent mixture which included a surfactant. At the same time, plants selected from these crop and weed species and also pigweed (Amaranthus retroflexus), waterhemp_RES1 (ALS/Triazine resistant common waterhemp, Amaranthus rudis) and waterhemp_RES2 (ALS/HPPD resistant common waterhemp, Amaranthus rudis) were planted in pots containing a planting medium comprising spaghnum peat moss, vermiculite, wetting agent and starter nutrients treated with postemergence applications of some of the test chemicals formulated in the same manner. Plants ranged in height from 2 to 18 cm for postemergence treatments (1- to 4-leaf stage).
# (§2) Treated plants and controls were maintained in a greenhouse for 14 to 21 days, after which time all species were compared to controls and visually evaluated. Plant response ratings, summarized in Table E, are based on a scale of 0 to 100 where 0 is no effect and 100 is complete control. A dash (-) response means no test result.
# [2] = test system: waterhemp (common waterhemp, Amaranthus rudis); test: Test F pre-/postemergence: waterhemp
# From the text: as §1, §2
# kochia (Kochia scoparia) = test: Test F pre-/postemergence: kochia; conditions: Preemergence
# From the text: as §1, §2
# [3] = test system: surinam grass (Brachiaria decumbens); test: Test F pre-/postemergence: surinam grass; conditions: Preemergence
# From the text: as §1, §2
# [4] = test system: arrowleaf sida (Sida rhombifolia); test: Test F pre-/postemergence: arrowleaf sida
# From the text: as §1, §2
# [5] = Postemergence, 4 g ai/ha, scale 0 to 100
# [6] = Postemergence, 8 g ai/ha, scale 0 to 100
# [7] = Postemergence, 16 g ai/ha, scale 0 to 100
# [8] = Postemergence, 31 g ai/ha, scale 0 to 100
# [9] = Postemergence, 62 g ai/ha, scale 0 to 100
# [10] = Preemergence, 4 g ai/ha, scale 0 to 100, 0 no effect, 100 complete control
# [11] = Preemergence, 8 g ai/ha, scale 0 to 100, 0 no effect, 100 complete control
# [12] = Preemergence, 16 g ai/ha, scale 0 to 100 (0 no effect, 100 complete control)
# [13] = Preemergence, 31 g ai/ha, scale 0 to 100 (0 no effect, 100 complete control)
# [14] = 4 g ai/ha, scale 0 to 100, 0 no effect, 100 complete control
# [15] = 31 g ai/ha, scale 0 to 100 (0 no effect, 100 complete control)
# [16] = Preemergence, 62 g ai/ha, scale 0 to 100
# [17] = Preemergence, 125 g ai/ha, scale 0 to 100
# [18] = Preemergence, 250 g ai/ha, scale 0 to 100
# [19] = 16 g ai/ha, scale 0 to 100 (0 no effect, 100 complete control)
smiles,measurement,setting,value
Cc1nn(-c2ccc(C(F)(F)F)c(F)c2)nc1Cc1ccnc(C(F)(F)F)c1 [Compound 162],"Plant response rating, Pigweed, Palmer",[1]; [5],70
same,"Plant response rating, Pigweed, Palmer",[1]; [6],70
same,"Plant response rating, Pigweed, Palmer",[1]; [7],80
same,"Plant response rating, Pigweed, Palmer",[1]; [8],90
same,"Plant response rating, Pigweed, Palmer",[1]; [9],90
same,"Plant response rating, Pigweed, Palmer",[1]; [10],0
same,"Plant response rating, Pigweed, Palmer",[1]; [11],25
same,"Plant response rating, Pigweed, Palmer",[1]; [12],98
same,"Plant response rating, Pigweed, Palmer",[1]; [13],100
same,"Plant response rating, Waterhemp",[2]; [5],80
same,"Plant response rating, Waterhemp",[2]; [6],90
same,"Plant response rating, Waterhemp",[2]; [7],90
same,"Plant response rating, Waterhemp",[2]; [8],95
same,"Plant response rating, Waterhemp",[2]; [9],95
same,"Plant response rating, Waterhemp",[2]; [10],50
same,"Plant response rating, Waterhemp",[2]; [11],85
same,"Plant response rating, Waterhemp",[2]; [12],90
same,"Plant response rating, Waterhemp",[2]; [13],100
same,"Plant response rating, Kochia",kochia (Kochia scoparia); [14],30
same,"Plant response rating, Kochia",kochia (Kochia scoparia); [15],70
same,"Plant response rating, Kochia","kochia (Kochia scoparia); 62 g ai/ha, scale 0 to 100",98
same,"Plant response rating, Surinam Grass",[3]; [14],0
same,"Plant response rating, Surinam Grass","[3]; 8 g ai/ha, scale 0 to 100, 0 no effect, 100 complete control",0
same,"Plant response rating, Arrowleaf Sida",[4]; [5],10
same,"Plant response rating, Arrowleaf Sida",[4]; [6],25
same,"Plant response rating, Arrowleaf Sida",[4]; [7],30
same,"Plant response rating, Arrowleaf Sida",[4]; [8],35
same,"Plant response rating, Arrowleaf Sida",[4]; [9],60
same,"Plant response rating, Arrowleaf Sida",[4]; [10],0
same,"Plant response rating, Arrowleaf Sida",[4]; [11],0
same,"Plant response rating, Arrowleaf Sida",[4]; [12],0
same,"Plant response rating, Arrowleaf Sida",[4]; [13],0
same,"Plant response rating, Arrowleaf Sida",[4]; [16],0
CCCc1nn(-c2ccc(F)cc2)nc1Cc1ccnc(C(F)(F)F)c1 [Compound 153],"Plant response rating, Pigweed, Palmer",[1]; [12],98
same,"Plant response rating, Pigweed, Palmer",[1]; [13],100
same,"Plant response rating, Pigweed, Palmer",[1]; [17],100
same,"Plant response rating, Pigweed, Palmer",[1]; [18],100
same,"Plant response rating, Waterhemp",[2]; [12],65
same,"Plant response rating, Waterhemp",[2]; [13],100
same,"Plant response rating, Waterhemp",[2]; [17],100
same,"Plant response rating, Waterhemp",[2]; [18],100
same,"Plant response rating, Kochia",kochia (Kochia scoparia); [19],25
same,"Plant response rating, Kochia",kochia (Kochia scoparia); [15],75
same,"Plant response rating, Kochia","kochia (Kochia scoparia); 62 g ai/ha, scale 0 to 100",95
same,"Plant response rating, Kochia","kochia (Kochia scoparia); 125 g ai/ha, scale 0 to 100",100
same,"Plant response rating, Kochia","kochia (Kochia scoparia); 250 g ai/ha, scale 0 to 100",100
same,"Plant response rating, Surinam Grass",[3]; [19],0
same,"Plant response rating, Surinam Grass",[3]; [15],5
same,"Plant response rating, Surinam Grass","[3]; 125 g ai/ha, scale 0 to 100",75
same,"Plant response rating, Surinam Grass","[3]; 250 g ai/ha, scale 0 to 100",98
same,"Plant response rating, Arrowleaf Sida",[4]; [12],5
same,"Plant response rating, Arrowleaf Sida",[4]; [13],5
same,"Plant response rating, Arrowleaf Sida",[4]; [16],25
same,"Plant response rating, Arrowleaf Sida",[4]; [17],25
same,"Plant response rating, Arrowleaf Sida",[4]; [18],65
